Holding throughout (experiment): Surface plasmon resonance binding of PDK1 to PIF / immobilised PIFtide
On the technique in general: SPR reads the build-up and loss of mass on a sensor chip optically.

The target of experiment [1] is T1, PDK1 (Homo sapiens, UniProt O15530, K115A).
T1 construct: Full length PDK1 (residues 1-556); made in house; host or cells: 293 cells
T1 sequence (O15530 1-556 K115A): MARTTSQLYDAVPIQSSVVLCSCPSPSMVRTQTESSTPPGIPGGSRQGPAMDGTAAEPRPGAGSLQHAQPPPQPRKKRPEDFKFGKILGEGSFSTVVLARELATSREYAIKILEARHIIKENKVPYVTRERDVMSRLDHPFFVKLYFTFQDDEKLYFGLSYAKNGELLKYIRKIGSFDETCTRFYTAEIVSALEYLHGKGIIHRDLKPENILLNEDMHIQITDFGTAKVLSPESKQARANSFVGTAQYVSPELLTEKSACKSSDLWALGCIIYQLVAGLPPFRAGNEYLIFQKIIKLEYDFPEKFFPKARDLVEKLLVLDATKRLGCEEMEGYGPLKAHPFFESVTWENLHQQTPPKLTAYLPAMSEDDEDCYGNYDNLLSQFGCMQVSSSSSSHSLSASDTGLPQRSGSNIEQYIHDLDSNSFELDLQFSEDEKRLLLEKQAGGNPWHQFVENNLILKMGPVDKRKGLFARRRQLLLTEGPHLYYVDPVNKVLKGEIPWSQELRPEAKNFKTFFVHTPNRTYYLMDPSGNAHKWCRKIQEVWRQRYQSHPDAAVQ
Particulars: immobilised biotinylated peptide; PDK1 K115A. An excerpt:
(§1) It is preferred that the interaction can be detected using a surface plasmon resonance method, as described in Example 1 or 2 and in Balendran et al (1999), supra and GB9906245.7, supra. The interacting polypeptide may be immobilised on the test surface, for example it can be coupled through amino groups to a SensorChip CM5™, according to the manufacturer's instructions, or a biotinylated polypeptide can be bound to an avidin coated SensorChip SA. The protein kinase (at concentrations between, for example 0 and […], for example 2 μM) is then injected over the surface and steady state binding determined in each case. From these measurements a Kd can be determined. […] Alternatively, a Kd can be determined for a polypeptide in competition with the immobilised polypeptide. The protein kinase (for example at a concentration of 0.5 μM) is mixed with free polypeptide (for example, at concentrations between 0 and 3 μM) and the mixture injected over the immobilised polypeptides. The steady state binding is determined in each case, from which the Kd of the interaction can be determined using the […] relationship. Alternatively, the interaction may be expressed in terms of an observed response or relative observed responses, measured in terms of mass of protein bound to the surface, as described in Example 2. For example, the polypeptide may be immobilised by amino coupling to a SensorChip CM5 and each protein kinase (for example different mutated protein kinases, as discussed below) for example at a concentration of 1.0 μM, injected over the immobilised polypeptide. Alternatively, the polypeptide may be immobilised on a SA SensorChip and each protein kinase, for example at a concentration of 40 nM injected over the immobilised polypeptide. The steady state response for each protein kinase is determined, for example expressed in Response Units (RU). 1000 RU corresponds to 1 ng/mm^2 of protein bound to the surface. A response of less than 10 RU may indicate that no interaction has taken place. A response of at least 10 RU may indicate that the immobilised and injected molecules interact with each other.
(§2) FIG. 9. Effect of mutation of conserved residues in the PIF-binding pocket of PDK1 on the ability to interact with PIF. 293 cells were transiently transfected with DNA constructs expressing GST-PIF and either wild type Myc-PDK1 or the indicated mutants of PDK1. 36 h post transfection the cells were lysed and GST-PIF purified by affinity chromatography on glutathione-Sepharose beads. 2 μg of each protein was electrophoresed on a 10% SDS/polyacrylamide gel and either stained with Coomassie blue (A and E) or immunoblotted using an anti Myc antibody to detect Myc-PDK1 (B and F). To establish that the wild type PDK1 and mutant proteins were expressed at a similar level, 10 μg of total cell lysate was electrophoresed on a 10% SDS/polyacrylamide gel and immunoblotted using anti-Myc antibodies (C and G). Duplicates of each condition are shown. Similar results were obtained in 3 to 5 separate experiments. (D) Surface Plasmon Resonance measurements were carried out in a BiaCore instrument as described in the Methods to measure the interaction of wild type and mutant GST-PDK1 preparations with the 24 residue synthetic peptide whose sequence encompasses the PDK1 binding site on PIF termed PIFtide [24: Example 2]. […]
(§3) Binding was analysed directly by surface plasmon resonance in an upgraded Bia-Lite™ system. […]

For experiment [2], the system named is PDK1. Set-up: species or system human.
From the text: as §1, §2, §3

Experiment [3] addresses T2, PDK1 (Homo sapiens, UniProt O15530).
T2 construct: Full length PDK1 (residues 1-556); made in house; host or cells: 293 cells
T2 sequence (O15530 52-556): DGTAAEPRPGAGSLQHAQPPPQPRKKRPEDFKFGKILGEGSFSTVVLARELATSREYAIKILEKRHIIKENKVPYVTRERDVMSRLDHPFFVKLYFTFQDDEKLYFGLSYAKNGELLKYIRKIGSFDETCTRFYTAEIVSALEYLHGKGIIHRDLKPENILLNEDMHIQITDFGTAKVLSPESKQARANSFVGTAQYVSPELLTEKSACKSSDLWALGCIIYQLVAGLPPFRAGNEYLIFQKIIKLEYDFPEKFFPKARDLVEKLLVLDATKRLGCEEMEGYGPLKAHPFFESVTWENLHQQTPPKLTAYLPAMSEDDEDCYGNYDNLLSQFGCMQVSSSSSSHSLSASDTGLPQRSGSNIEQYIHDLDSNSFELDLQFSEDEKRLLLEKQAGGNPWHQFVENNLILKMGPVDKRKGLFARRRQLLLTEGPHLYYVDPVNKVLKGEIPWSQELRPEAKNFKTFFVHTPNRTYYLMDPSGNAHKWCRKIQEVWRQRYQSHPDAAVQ
The conditions noted are these: His-tagged PDK1.
From the text: as §1, §2, §3

The values that follow come from patent US20080009025A1, “PROTEIN KINASE REGULATION” (priority 1999, published 2008).

Where a SMILES comes first, the peptide text is derived from it.

Turning to `CC[C@H](C)[C@H](NC(=O)[C@H](Cc1ccc(O)cc1)NC(=O)[C@H](CC(=O)O)NC(=O)[C@H](Cc1ccccc1)NC(=O)[C@H](CC(=O)O)NC(=O)[C@H](CCCNC(=N)N)NC(=O)[C@H](Cc1ccccc1)NC(=O)[C@H](CCSC)NC(=O)[C@H](CCC(=O)O)NC(=O)[C@H](CCC(N)=O)NC(=O)[C@H](CCC(=O)O)NC(=O)[C@H](CCC(=O)O)NC(=O)[C@H](CCC(=O)O)NC(=O)[C@H](CO)NC(=O)[C@H](CC(C)C)NC(=O)[C@@H](NC(=O)[C@H](CCCNC(=N)N)NC(=O)[C@@H]1CCCN1C(=O)[C@H](CCC(=O)O)NC(=O)[C@@H](N)CCCNC(=N)N)[C@@H](C)CC)C(=O)N[C@@H](C)C(=O)N[C@@H](CC(=O)O)C(=O)N[C@@H](Cc1c[nH]c2ccccc12)C(=O)N[C@@H](CS)C(=O)O` [PIFtide] (H-REPRILSEEEQEMFRDFDYIADWC-OH; N-terminus and C-terminus assumed), the “interaction with K115A mutant of PDK1” value at PDK1 [1] is “interacted weakly”. Also, the “decreased affinity of PDK1[K115A], PDK1[I119A], PDK1[Q150A] and PDK1[L155A] for PIFtide” value in the experiment on PDK1 [2] (PDK1 PIF pocket mutants vs wild type, unpublished data) is listed as approximately 10 fold. For the same molecule, the “interaction with L155S, L155D and L155E mutants of PDK1” value in the experiment with PDK1 [2] (immobilised biotinylated peptide, PDK1 mutants L155S, L155D, L155E) is “no detectable affinity”. The “interaction with wild type GST-PDK1” value in the experiment on PDK1 [2] (immobilised biotinylated peptide, wild type GST-PDK1) was “high affinity interaction”.
For “GST-PIF: glutathione S-transferase fused to the last 77 residues of PRK2 (PIF)”, in the experiment with PDK1 [3], the “estimated equilibrium dissociation constant of the association between GST-PIF and His-tagged PDK1” value is 600 nM.
